Test results reported in patent US20240299542A1, “NATURAL KILLER CELLS ENGINEERED TO REDUCE OR ELIMINATE CBL-B AND USES THEREOF” (City of Hope, priority 2021, published 2024).

Tests used:
[1] = test system: Cbl-b; test: siRNA knockdown efficiency by immunoblot in primary human NK cells; assay type: cell-based; settings: 48 h transduction, vs Scr siRNA
Description: (§1) FIG. 8A Primary human NK cells were transduced with Cbl-b siRNA or a scrambled siRNA (Scr siRNA) for 48 h, directly followed by immunoblot analysis to determine the efficiency of siRNA (n=3 donors). […] FIG. 8B qRT-PCR was performed to quantify the level of perform mRNA (n=7 donors) in Cbl-b siRNA- and Scr siRNA-transduced primary human cells incubated without or with IL-15 (10 ng/ml) for 16 h. FIG. 8C The perform protein level in Cbl-b siRNA- and Scr siRNA-transduced primary human NK cells incubated 24 without or with IL-15 (10 ng/ml) for 24 h was measured by immunoblot analysis. The data are representative of four experiments and are summarized in the right panel. Scr, scrambled; *P<0.05, **P<0.01; ns, not significant. Data are presented as mean±SEM.
Transient transfection. Primary human NK cells were transfected with Accell siRNA by using the Accell delivery media from Dharmacon. Gene knockdown efficiency of siRNA was determined with immunoblotting analysis.
Immunoblotting. […] Densitometric analysis was performed to quantify intensity of gel bands with Image J (National Institutes of Health).
(§2) Both groups were next incubated without or with IL-15 and co-cultured with ^51Cr labeled MV4-11, Molm-13, or EOL-1 leukemia cell lines, followed by assessment of specific lysis measured after 4 h of co-culture.

[2] = test system: perform; test: Perforin mRNA by qRT-PCR in siRNA-transduced NK cells; assay type: cell-based, human; settings: without or with IL-15 (10 ng/ml) 16 h, vs Scr siRNA
Description: as §1
Reverse transcription-polymerase chain reaction. Total RNA was isolated from primary NK cells with the RNeasy Mini Kit (Qiagen). Complementary DNA (cDNA) was generated by Moloney murine leukemia virus (M-MLV) reverse transcriptase (Invitrogen) and amplified by qPCR with SYBR Green PCR Master Mix (Applied Biosystems) and gene-specific primers. Relative amplification values were normalized to the amplification of GAPDH or 18S rRNA.
as §2

[3] = test system: IFN-γ; test: IFN-γ mRNA by qRT-PCR in IL-15-activated siRNA-transduced NK cells; assay type: cell-based, human; settings: IL-15 (10 ng/ml) 6 h, vs Scr siRNA
Description: (§3) FIGS. 4A-4D depict the results of a study showing that downregulation of Cbl-b increases IFN-γ secretion in IL-15-activated primary human NK cells. (FIG. 4A) RNAseq was conducted using primary human NK cells transduced with either Cbl-b siRNA or Scr siRNA without or with incubation in IL-15 (10 ng/ml) for 16 h (4 donors for each group). […] (FIG. 4B) qRT-PCR was performed to quantify the mRNA levels of IFN-γ (n=6 donors) after IL-15 (10 ng/ml) 6 h stimulation. (FIG. 4C) The percentage of intracellular IFN-γ+ cells in un-transduced NK cells or those transduced with Cbl-b siRNA or Scr siRNA, each activated with IL-15 (10 ng/ml) for 24 h (11.5% vs 4.338%; P=0.0008; n=5 donors). (FIG. 4D) Supernatants were collected after IL-15 (10 ng/ml) for 24 h and IFN-γ concentrations measured by ELISA (18115 pg/ml vs 882.5 pg/ml; P=0.0099; n=7 donors). Scr-scrambled; *P<0.05, **P<0.01, ***P<0.001 by Student's two-tailed paired t-test or One-way ANOVA; ns, not significant. Data presented as mean±SEM.
Reverse transcription-polymerase chain reaction. Total RNA was isolated from primary NK cells with the RNeasy Mini Kit (Qiagen). Complementary DNA (cDNA) was generated by Moloney murine leukemia virus (M-MLV) reverse transcriptase (Invitrogen) and amplified by qPCR with SYBR Green PCR Master Mix (Applied Biosystems) and gene-specific primers. […]

[4] = test system: perform; test: Perforin protein by immunoblot in siRNA-transduced NK cells; assay type: cell-based, human; settings: with IL-15 (10 ng/ml) 24 h, vs Scr siRNA
Description: as §1
Immunoblotting. Cells were harvested and suspended in RIPA lysis buffer (Thermo Fisher Scientific) on ice for 20 minutes. Equal amount of protein was resolved by 5-15% Criterion TGX gel (Bio-Rad) and then transferred onto a Nitrocellulose (NC) or PVDF membrane (Thermo Fisher Scientific). […] Densitometric analysis was performed to quantify intensity of gel bands with Image J (National Institutes of Health).
as §2

[5] = test system: IFN-γ; test: Intracellular IFN-γ flow cytometry of siRNA-transduced NK cells; assay type: cell-based, human
Description: as §3
FIGS. 9B-9D show intracellular flow cytometric analysis of CD56+ primary human NK cells transduced with Scr siRNA or transduced with Cbl-b siRNA, incubated with IL-18 (10 ng/ml), IL-12 (10 ng/ml) or IL-18 (10 ng/ml) plus IL-12 (10 ng/ml) for 24 h. Scr, scrambled; *P<0.05, ns, not significant. Data are presented as mean±SEM.
Flow cytometry. To determine protein cell surface expression via flow cytometry, cells were stained with monoclonal antibodies at room temperature for 20 minutes and washed with FACS buffer prior to analysis using a Fortessa X-20 flow cytometer (BD Biosciences). For IFN-γ intracellular flow cytometric analysis, […] GolgiPlug (BD Biosciences) was added for 4 h before cell harvest; cells were then permeabilized and fixed using a Cytofix/Cytoperm Fixation/Permeabilization Solution Kit (BD Biosciences), followed by analysis with a Fortessa X-20 flow cytometer. Intracellular flow cytometric analysis of Mertk was performed similarly except that GolgiPlug was not added. Data was analyzed by using Flowjo V10 software (Tree Star, Ashland, OR, USA).
(§4) To further explore how Cbl-b regulates the functions of primary human NK cells, we performed RNA-seq analyses using enriched primary NK cells from healthy donors transduced with Cbl-b siRNA or Scr siRNA without or with IL-15 treatment for 16 h (n=4 in each group). […] The intracellular results were supported by assessment IFN-γ secretion into the supernatant, in that IL-15-activated primary human NK cells transduced with Cbl-b siRNA expressed 10-fold higher levels of IFN-γ compared to NK cells transduced with Scr siRNA (FIG. 4D).

[6] = test system: IFN-γ; test: IFN-γ in supernatants by ELISA; assay type: cell-based, human
Description: as §3
ELISA. Primary NK cells were plated in an equivalent number of 100,000 cells/well in a 96-well plate in RPMI and supplemented with 10% FBS. Cells were treated with recombinant human IL-15 (10 ng/ml) for 24 h, and cell-free culture supernatant was collected and frozen at −80° C. for later use. IFN-γ concentration was measured by ELISA using anti-IFN-γ antibody from Thermo Fisher Scientific. Granzyme B concentration was measured by ELISA kit purchased from R&D.
as §4

Cbl-b siRNA: Cbl-b-specific Accell siRNA (Dharmacon), SEQ ID NO:1, CCUUCAUGUUCAGAUGGUU (Accell modified siRNA, pattern not given here)
expression of Cbl-b after siRNA transduction [1]: significant decrease | perform mRNA [2]: did not reach a statistical significance | IFN-γ mRNA [3]: increased dramatically | total protein level of perform [4]: significantly increased | percentage of IFN-γ+ fraction relative to Scr siRNA ([5]; IL-12 (10 ng/ml) or IL-12 plus IL-18 (10 ng/ml each) 24 h): no significant difference | percentage of intracellular IFN-γ+ cells ([5]; IL-15 (10 ng/ml) 24 h, n=5 donors): 11.5% | intracellular IFN-γ level relative to Scr siRNA ([5]; IL-15-activated): 2.5 fold | percentage of IFN-γ+ fraction relative to Scr siRNA ([5]; IL-18 (10 ng/ml) 24 h): 2.5 fold | IFN-γ concentration in supernatants ([6]; IL-15 (10 ng/ml) 24 h, n=7 donors): 18115 pg/mL | secreted IFN-γ level relative to Scr siRNA ([6]; IL-15-activated): 10 fold
